{"source": "patent US8563540B2", "about": "“Pyrido[3,2-d]pyrimidine PI3K delta inhibitor compounds and methods of use” (Genetech, Inc., priority 2010, dated 2013)", "key": {"p110 delta": {"biological_target": "T1, p110 delta (Homo sapiens, UniProt O00329)", "T1 construct": "purchased Upstate Group, Millipore; Dundee, UK", "T1 sequence (O00329 whole entry, canonical isoform)": "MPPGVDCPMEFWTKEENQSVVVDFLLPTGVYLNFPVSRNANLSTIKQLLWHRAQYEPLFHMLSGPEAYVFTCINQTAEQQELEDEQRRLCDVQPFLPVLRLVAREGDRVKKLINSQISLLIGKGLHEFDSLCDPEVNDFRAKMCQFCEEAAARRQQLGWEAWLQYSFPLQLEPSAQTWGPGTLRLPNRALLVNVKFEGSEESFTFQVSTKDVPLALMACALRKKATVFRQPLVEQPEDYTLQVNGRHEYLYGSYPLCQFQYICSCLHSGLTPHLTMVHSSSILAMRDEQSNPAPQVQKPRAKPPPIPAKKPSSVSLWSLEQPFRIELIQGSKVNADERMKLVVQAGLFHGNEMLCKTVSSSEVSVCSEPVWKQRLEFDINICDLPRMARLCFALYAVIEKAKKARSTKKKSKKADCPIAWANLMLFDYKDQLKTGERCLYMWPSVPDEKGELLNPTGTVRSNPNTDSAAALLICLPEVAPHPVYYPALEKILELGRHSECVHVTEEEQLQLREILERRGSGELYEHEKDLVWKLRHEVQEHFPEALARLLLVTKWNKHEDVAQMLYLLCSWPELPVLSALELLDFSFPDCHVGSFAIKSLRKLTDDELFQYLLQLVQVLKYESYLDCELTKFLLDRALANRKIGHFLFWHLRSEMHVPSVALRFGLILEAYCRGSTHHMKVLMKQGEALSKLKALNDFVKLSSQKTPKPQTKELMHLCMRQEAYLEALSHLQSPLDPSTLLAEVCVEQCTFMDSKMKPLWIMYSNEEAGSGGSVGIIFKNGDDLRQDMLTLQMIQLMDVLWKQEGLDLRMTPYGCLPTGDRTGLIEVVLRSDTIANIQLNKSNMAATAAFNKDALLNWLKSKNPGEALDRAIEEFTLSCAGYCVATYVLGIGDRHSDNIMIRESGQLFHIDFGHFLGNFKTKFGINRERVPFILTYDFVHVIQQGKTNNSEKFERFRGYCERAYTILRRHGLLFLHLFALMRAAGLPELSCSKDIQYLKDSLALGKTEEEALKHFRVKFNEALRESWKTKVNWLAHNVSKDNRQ", "T1 sequence (P27986 whole entry partner, canonical isoform)": "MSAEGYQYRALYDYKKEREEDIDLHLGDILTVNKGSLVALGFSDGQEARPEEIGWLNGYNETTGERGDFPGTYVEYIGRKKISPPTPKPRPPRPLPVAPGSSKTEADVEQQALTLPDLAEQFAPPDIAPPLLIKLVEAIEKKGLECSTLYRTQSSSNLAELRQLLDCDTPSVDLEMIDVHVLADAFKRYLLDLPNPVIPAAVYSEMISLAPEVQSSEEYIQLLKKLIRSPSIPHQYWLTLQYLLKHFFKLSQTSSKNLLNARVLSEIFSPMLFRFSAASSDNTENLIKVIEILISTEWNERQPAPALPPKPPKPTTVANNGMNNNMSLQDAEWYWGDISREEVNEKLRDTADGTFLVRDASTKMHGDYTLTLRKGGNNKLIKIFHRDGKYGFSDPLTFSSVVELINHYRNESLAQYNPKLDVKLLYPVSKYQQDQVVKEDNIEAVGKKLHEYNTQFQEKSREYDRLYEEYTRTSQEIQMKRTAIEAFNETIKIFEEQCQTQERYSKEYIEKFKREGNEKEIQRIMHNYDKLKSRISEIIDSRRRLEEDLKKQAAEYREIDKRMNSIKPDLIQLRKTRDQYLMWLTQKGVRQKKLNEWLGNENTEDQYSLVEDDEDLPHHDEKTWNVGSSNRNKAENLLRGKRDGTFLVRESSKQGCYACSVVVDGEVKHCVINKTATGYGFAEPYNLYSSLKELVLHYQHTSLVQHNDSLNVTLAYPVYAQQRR", "experiment": "PI3K Isoform Inhibition Assay, p110 delta", "format": "biochemical", "details": "PI3K isoform inhibition assay of Example 901", "method": "(§1) PI3K enzymatic activity was assayed by measuring the amount of product phosphatidylinositol […] (PIP3) formed from substrate 4,5 phosphatidylinositol 4,5-phosphate (PIP2) using a fluorescence polarization displacement assay. The decrease in fluorescence polarization of a fluorescent PIP3 probe is measured as it is displaced from a PIP3-binding protein GRP-1 detector by PI3K-catalyzed product. […] The kinase reactions were initiated by the addition of 40 ng/mL p110α/p85α, 300 ng/mL p110β/p85α, 40 ng/mL p110γ, or 40 ng/mL […] (Upstate Group, Millipore; Dundee, UK), and 10 μM PIP2 (Echelon Biosciences) to the wells. […] After 60 minutes of incubation at room temperature to allow equilibration of labeled and unlabeled PIP3 binding, the parallel and perpendicular components of the fluorescence emissions from each sample were measured at an excitation wavelength of 530 nm and an emission wavelength of 590 nm using an Envision fluorescent plate reader with a rhodamine filter (PerkinElmer Life and Analytical Sciences; Wellesley, Mass.). The assay is capable of detecting 0.1-2.0 μM PIP3 product. The IC50 values were obtained by fitting the dose-dependent inhibition data to a 4-parameter equation using Assay Explorer software (MDL, San Ramon, Calif.).\n(§2) The Formula I compound was serially diluted in 100% DMSO. The kinase reaction was incubated for 1 h at room temperature, and the reaction was terminated by the addition of PBS. IC50 values were subsequently determined using sigmoidal dose-response curve fit (variable slope).\nThe four Class I PI 3-kinases are cloned into baculovirus vectors as follows: […]"}, "p110 alpha": {"biological_target": "T2, p110 alpha (Homo sapiens, UniProt P42336)", "T2 construct": "purchased Upstate Group, Millipore; Dundee, UK", "T2 sequence (P42336 whole entry, canonical isoform)": "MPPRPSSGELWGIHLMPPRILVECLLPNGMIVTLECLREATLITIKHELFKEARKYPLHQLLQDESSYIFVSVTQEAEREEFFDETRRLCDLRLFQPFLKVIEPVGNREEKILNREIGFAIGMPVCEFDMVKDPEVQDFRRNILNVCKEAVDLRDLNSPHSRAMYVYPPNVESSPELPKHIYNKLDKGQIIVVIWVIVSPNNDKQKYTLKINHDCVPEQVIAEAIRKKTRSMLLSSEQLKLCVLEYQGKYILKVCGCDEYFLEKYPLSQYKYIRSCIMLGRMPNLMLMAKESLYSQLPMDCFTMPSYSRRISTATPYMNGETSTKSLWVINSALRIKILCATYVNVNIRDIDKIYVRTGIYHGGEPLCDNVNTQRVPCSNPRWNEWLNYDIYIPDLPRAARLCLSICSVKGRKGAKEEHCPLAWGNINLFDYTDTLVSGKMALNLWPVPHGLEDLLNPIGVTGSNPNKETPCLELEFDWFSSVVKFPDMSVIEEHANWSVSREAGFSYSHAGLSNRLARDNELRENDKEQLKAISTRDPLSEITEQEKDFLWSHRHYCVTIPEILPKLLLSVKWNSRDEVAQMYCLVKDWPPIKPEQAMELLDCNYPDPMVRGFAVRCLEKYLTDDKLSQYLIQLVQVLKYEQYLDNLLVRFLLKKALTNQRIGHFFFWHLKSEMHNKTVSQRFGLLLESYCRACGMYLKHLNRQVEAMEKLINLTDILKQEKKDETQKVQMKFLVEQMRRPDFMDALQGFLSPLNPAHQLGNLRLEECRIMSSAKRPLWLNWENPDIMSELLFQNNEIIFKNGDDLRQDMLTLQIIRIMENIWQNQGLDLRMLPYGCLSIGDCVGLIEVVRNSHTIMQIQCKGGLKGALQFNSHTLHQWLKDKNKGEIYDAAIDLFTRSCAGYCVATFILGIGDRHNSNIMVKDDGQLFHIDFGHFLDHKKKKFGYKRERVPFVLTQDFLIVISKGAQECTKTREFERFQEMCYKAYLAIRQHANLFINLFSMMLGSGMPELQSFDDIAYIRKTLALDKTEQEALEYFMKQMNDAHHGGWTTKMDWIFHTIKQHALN", "T2 sequence (P27986 whole entry partner, canonical isoform)": "as the sequence (P27986 whole entry partner, canonical isoform) above", "experiment": "PI3K Isoform Inhibition Assay, p110 alpha (delta/alpha selectivity)", "details": "ratio of biochemical IC50 values", "method": "as §1, §2\nThe same protocol may be used to establish IC50 values for p110α (alpha) PI3K binding. […]"}, "[1]": {"tested_on": "production of CD69 by B lymphocytes in human whole blood activated with anti-human IgM", "experiment": "CD69 Whole Blood Assay", "format": "cell-based", "details": "Lymphocyte, anti-IgM stimulated, CD69 positive of CD20 positive cells, 20 hours", "method": "Human blood is obtained from healthy volunteers, with the following restrictions: 1 week drug-free, non-smokers.\nHuman whole blood—HWB (100 μl) is added to each well. After mixing the plates are incubated at 37° C., 5% CO2, 100% humidity for 30 minutes. Goat F(ab′)2 anti-human IgM (10 μl of a 500 μg/ml solution, 50 μg/ml final) is added to each well (except the no-stimulus wells) with mixing and the plates are incubated for an additional 20 hours. […] Include induced control, unstained and single stains for compensation adjustments and initial voltage settings. […] Results are initially analyzed by FACS analysis software (Flow Jo)."}}, "data": [{"smiles": "CC(C)c1nc2ccccc2n1-c1nc(N2CCOCC2)c2nc(CN3CCC(C(C)(C)O)CC3)ccc2n1", "note": "[Compound 112, 2-(1-((2-(2-isopropyl-1H-benzo[d]imidazol-1-yl)-4-morpholinopyrido[3,2-d]pyrimidin-6-yl)methyl)piperidin-4-yl)propan-2-ol]", "values": [{"measurement": "IC50", "setting": "p110 delta", "value": 0.00533, "unit": "µM"}, {"measurement": "IC50 p110 alpha/IC50 p110 delta", "setting": "p110 alpha", "value": 44}, {"measurement": "IC50", "setting": "[1]", "value": 0.0838, "unit": "µM"}]}, {"smiles": "CO[C@@H](C)c1nc2ccccc2n1-c1nc(N2CCOCC2)c2nc(CN3CCC(C(C)(C)O)CC3)ccc2n1", "note": "[Compound 114, (S)-2-(1-((2-(2-(1-methoxyethyl)-1H-benzo[d]imidazol-1-yl)-4-morpholinopyrido[3,2-d]pyrimidin-6-yl)methyl)piperidin-4-yl)propan-2-ol]", "values": [{"measurement": "IC50", "setting": "p110 delta", "value": 0.00178, "unit": "µM"}, {"measurement": "IC50 p110 alpha/IC50 p110 delta", "setting": "p110 alpha", "value": 53}, {"measurement": "IC50", "setting": "[1]", "value": 0.012, "unit": "µM"}]}, {"smiles": "O=S1(=O)CCN(C2CN(Cc3ccc4nc(-c5c(F)ccc6[nH]ccc56)nc(N5CCOCC5)c4n3)C2)CC1", "note": "[Compound 129, 4-(2-(5-fluoro-1H-indol-4-yl)-6-((3-(1,1-dioxo)thiomorpholinoazetidin-1-yl)methyl)pyrido[3,2-d]pyrimidin-4-yl)morpholine]", "values": [{"measurement": "IC50", "setting": "p110 delta", "value": 0.000845, "unit": "µM"}, {"measurement": "IC50 p110 alpha/IC50 p110 delta", "setting": "p110 alpha", "value": 440}]}, {"smiles": "Fc1ccc2[nH]ccc2c1-c1nc(N2CCOCC2)c2nc(CN3CCC(C4COC4)CC3)ccc2n1", "note": "[Compound 130, 4-(2-(5-fluoro-1H-indol-4-yl)-6-((4-(oxetan-3-yl)piperidin-1-yl)methyl)pyrido[3,2-d]pyrimidin-4-yl)morpholine]", "values": [{"measurement": "IC50", "setting": "p110 delta", "value": 0.00312, "unit": "µM"}, {"measurement": "IC50 p110 alpha/IC50 p110 delta", "setting": "p110 alpha", "value": 352}]}, {"smiles": "CCc1nc2ccccc2n1-c1nc(N2CCOCC2)c2nc(CN3CC(N4CCOCC4)C3)ccc2n1", "note": "[Compound 131, 4-(1-((2-(2-ethyl-1H-benzo[d]imidazol-1-yl)-4-morpholinopyrido[3,2-d]pyrimidin-6-yl)methyl)azetidin-3-yl)morpholine]", "values": [{"measurement": "IC50", "setting": "p110 delta", "value": 0.00223, "unit": "µM"}, {"measurement": "IC50 p110 alpha/IC50 p110 delta", "setting": "p110 alpha", "value": 36}]}, {"smiles": "Cc1cc(-c2nc(N3CCOCC3)c3nc(CN4CCC(C(C)(C)O)CC4)ccc3n2)cnc1N", "note": "[Compound 132, 2-(1-((2-(6-amino-5-methylpyridin-3-yl)-4-morpholinopyrido[3,2-d]pyrimidin-6-yl)methyl)piperidin-4-yl)propan-2-ol]", "values": [{"measurement": "IC50", "setting": "p110 delta", "value": 0.0224, "unit": "µM"}, {"measurement": "IC50 p110 alpha/IC50 p110 delta", "setting": "p110 alpha", "value": 10}]}, {"smiles": "CC(C)(O)C1CCN(Cc2ccc3nc(-c4c[nH]c5ccccc45)nc(N4CCOCC4)c3n2)CC1", "note": "[Compound 133, 2-(1-((2-(1H-indol-3-yl)-4-morpholinopyrido[3,2-d]pyrimidin-6-yl)methyl)piperidin-4-yl)propan-2-ol]", "values": [{"measurement": "IC50", "setting": "p110 delta", "value": 0.0238, "unit": "µM"}, {"measurement": "IC50 p110 alpha/IC50 p110 delta", "setting": "p110 alpha", "value": 22}]}, {"smiles": "CCc1nc2ccccc2n1-c1nc(N2CCOCC2)c2nc(CN3CC(N4CCNC(=O)C4)C3)ccc2n1", "note": "[Compound 134, 4-(1-((2-(2-ethyl-1H-benzo[d]imidazol-1-yl)-4-morpholinopyrido[3,2-d]pyrimidin-6-yl)methyl)azetidin-3-yl)piperazin-2-one]", "values": [{"measurement": "IC50", "setting": "p110 delta", "value": 0.00356, "unit": "µM"}, {"measurement": "IC50 p110 alpha/IC50 p110 delta", "setting": "p110 alpha", "value": 10.9}]}, {"smiles": "Cc1cc2ccccc2n1-c1nc(N2CCOCC2)c2nc(CN3CCC(C(C)(C)O)CC3)ccc2n1", "note": "[Compound 135, 2-(1-((2-(2-methyl-1H-indol-1-yl)-4-morpholinopyrido[3,2-d]pyrimidin-6-yl)methyl)piperidin-4-yl)propan-2-ol]", "values": [{"measurement": "IC50", "setting": "p110 delta", "value": 0.0256, "unit": "µM"}, {"measurement": "IC50 p110 alpha/IC50 p110 delta", "setting": "p110 alpha", "value": 82}]}, {"smiles": "CC(C)n1ncnc1-c1ccc2nc(-c3c(F)ccc4[nH]ccc34)nc(N3CCOCC3)c2n1", "note": "[Compound 141, 4-(2-(5-fluoro-1H-indol-4-yl)-6-(1-isopropyl-1H-1,2,4-triazol-5-yl)pyrido[3,2-d]pyrimidin-4-yl)morpholine]", "values": [{"measurement": "IC50", "setting": "p110 delta", "value": 0.0636, "unit": "µM"}, {"measurement": "IC50 p110 alpha/IC50 p110 delta", "setting": "p110 alpha", "value": 9.4}]}, {"smiles": "CC(C)(O)CNCc1ccc2nc(-c3c(F)ccc4[nH]ccc34)nc(N3CCOCC3)c2n1", "note": "[Compound 143, 1-((2-(5-fluoro-1H-indol-4-yl)-4-morpholinopyrido[3,2-d]pyrimidin-6-yl)methylamino)-2-methylpropan-2-ol]", "values": [{"measurement": "IC50", "setting": "p110 delta", "value": 0.0359, "unit": "µM"}, {"measurement": "IC50 p110 alpha/IC50 p110 delta", "setting": "p110 alpha", "value": 58}]}, {"smiles": "CC(C)(O)C1CCN(Cc2ccc3nc(-n4c(C(F)(F)F)nc5ccccc54)nc(N4CCOCC4)c3n2)CC1", "note": "[Compound 156, 2-(1-((4-morpholino-2-(2-(trifluoromethyl)-1H-benzo[d]imidazol-1-yl)pyrido[3,2-d]pyrimidin-6-yl)methyl)piperidin-4-yl)propan-2-ol]", "values": [{"measurement": "IC50", "setting": "p110 delta", "value": 0.00286, "unit": "µM"}, {"measurement": "IC50 p110 alpha/IC50 p110 delta", "setting": "p110 alpha", "value": 42}]}, {"smiles": "Fc1ccc2[nH]ccc2c1-c1ccc2nc(N3CCOCC3)nc(N3CCOCC3)c2n1", "note": "[Compound 159, 4,4′-(6-(5-fluoro-1H-indol-4-yl)pyrido[3,2-d]pyrimidine-2,4-diyl)dimorpholine]", "values": [{"measurement": "IC50", "setting": "p110 delta", "value": 0.873, "unit": "µM"}, {"measurement": "IC50 p110 alpha/IC50 p110 delta", "setting": "p110 alpha", "value": 1.4}]}, {"smiles": "CNc1ncccc1-c1nc(N2CCOCC2)c2nc(CN3CCC(C(C)(C)O)CC3)ccc2n1", "note": "[Compound 160, 2-(1-((2-(2-(methylamino)pyridin-3-yl)-4-morpholinopyrido[3,2-d]pyrimidin-6-yl)methyl)piperidin-4-yl)propan-2-ol]", "values": [{"measurement": "IC50", "setting": "p110 delta", "value": 0.0983, "unit": "µM"}, {"measurement": "IC50 p110 alpha/IC50 p110 delta", "setting": "p110 alpha", "value": 21}]}, {"smiles": "CC(C)(O)C1CCN(Cc2ccc3nc(-c4cccc5nccn45)nc(N4CCOCC4)c3n2)CC1", "note": "[Compound 161, 2-(1-((2-(imidazo[1,2-a]pyridin-5-yl)-4-morpholinopyrido[3,2-d]pyrimidin-6-yl)methyl)piperidin-4-yl)propan-2-ol]", "values": [{"measurement": "IC50", "setting": "p110 delta", "value": 0.118, "unit": "µM"}, {"measurement": "IC50 p110 alpha/IC50 p110 delta", "setting": "p110 alpha", "value": 17.8}]}, {"smiles": "CC1(COc2ccc3nc(-c4cnc(N)nc4)nc(N4CCOCC4)c3n2)COC1", "note": "[Compound 188, 5-(6-((3-methyloxetan-3-yl)methoxy)-4-morpholinopyrido[3,2-d]pyrimidin-2-yl)pyrimidin-2-amine]", "values": [{"measurement": "IC50", "setting": "p110 delta", "value": 0.00869, "unit": "µM"}, {"measurement": "IC50 p110 alpha/IC50 p110 delta", "setting": "p110 alpha", "value": 0.18}]}, {"smiles": "Cc1cnc2c(N3CCOCC3)nc(-c3cnc(N)nc3)nc2c1", "note": "[Compound 197, 5-(7-methyl-4-morpholinopyrido[3,2-d]pyrimidin-2-yl)pyrimidin-2-amine]", "values": [{"measurement": "IC50", "setting": "p110 delta", "value": 0.00572, "unit": "µM"}, {"measurement": "IC50 p110 alpha/IC50 p110 delta", "setting": "p110 alpha", "value": 0.20}]}, {"smiles": "Nc1ncc(-c2nc(N3CCOCC3)c3ncc(C4CC4)cc3n2)cn1", "note": "[Compound 198, 5-(7-cyclopropyl-4-morpholinopyrido[3,2-d]pyrimidin-2-yl)pyrimidin-2-amine]", "values": [{"measurement": "IC50", "setting": "p110 delta", "value": 0.00388, "unit": "µM"}, {"measurement": "IC50 p110 alpha/IC50 p110 delta", "setting": "p110 alpha", "value": 0.27}]}, {"smiles": "COC1CN(c2cnc3c(N4CCOCC4)nc(N4CC(OC)C4)nc3c2)C1", "note": "[Compound 199, 4-(2,7-bis(3-methoxyazetidin-1-yl)pyrido[3,2-d]pyrimidin-4-yl)morpholine]", "values": [{"measurement": "IC50", "setting": "p110 delta", "value": 0.728, "unit": "µM"}, {"measurement": "IC50 p110 alpha/IC50 p110 delta", "setting": "p110 alpha", "value": 0.95}]}, {"smiles": "COC1CN(c2cnc3c(N4CCOCC4)nc(-c4cnc(N)nc4)nc3c2)C1", "note": "[Compound 200, 5-(7-(3-methoxyazetidin-1-yl)-4-morpholinopyrido[3,2-d]pyrimidin-2-yl)pyrimidin-2-amine]", "values": [{"measurement": "IC50", "setting": "p110 delta", "value": 0.716, "unit": "µM"}, {"measurement": "IC50 p110 alpha/IC50 p110 delta", "setting": "p110 alpha", "value": 0.97}]}, {"smiles": "CC(C)Oc1cnc2c(N3CCOCC3)nc(-c3cnc(N)nc3)nc2c1", "note": "[Compound 201, 5-(7-isopropoxy-4-morpholinopyrido[3,2-d]pyrimidin-2-yl)pyrimidin-2-amine]", "values": [{"measurement": "IC50", "setting": "p110 delta", "value": 0.00491, "unit": "µM"}, {"measurement": "IC50 p110 alpha/IC50 p110 delta", "setting": "p110 alpha", "value": 0.34}]}]}
